# In patent US9371527B2, “Compositions and methods related to protein displacement therapy for myotonic distrophy” (University of Rochester, priority 2006, dated 2016):
# Entries after “also recorded” stand apart in the source; their conditions may differ.
# Columns and labels:
# [1] = system: HSA^LR mice; test: Electromyography of myotonia after ClC-1 antisense morpholino, HSA^LR mice; format: in vivo; conditions: TA muscle
# Method: FIGS. 21A, 21B, 21C, and 21D show the effects of antisense morpholino targeting the 3′ splice junction of ClC-1 exon 7a on splicing and myotonia in HSA^LR transgenic mice. Antisense morpholino targeting the 3′ splice junction of ClC-1 exon 7a was injected into tibialis anterior muscle of HSA^LR mice under general anesthesia (sequence 5′-[…]-3′ (SEQ ID NO: 4)). The contralateral muscle was injected with morpholino having the inverted sequence (5′-[…]-3′(SEQ ID NO: 5)). Uptake into muscle fibers was enhanced by in vivo electroporation. The determination of which side received the antisense morpholino was randomized. […] Electromyography was blinded to the randomization.
# HSA^LR (Mankodi, A., et al. (2000) Science 289:1769-1773) or Mbnl1^ΔE3/ΔE3 mice (Kanadia, R. N., et al. (2003) Science 302:1978-1980) were anesthetized by intraperitoneal injection of 100 mg/kg ketamine, 10 mg/kg xylazine, and 3 mg/kg acepromazine. TA muscle was pretreated by intramuscular injection of bovine hyaluronidase (15 μl, 0.4 U/μl) (Sigma) (McMahon, J. M., et al. (2001) Gene Ther 8:1264-1270). Two hours later, 10 or 20 μg of morpholino in a total volume of 20 μl phosphate buffered saline (PBS) was injected using a 30-gauge needle. TA muscle was then electroporated using electrodes placed parallel to the long axis of the muscle. Electroporation parameters were 100 V/cm, 10 pulses at 1 Hz, and 20 ms duration per pulse. Antisense or control morpholino with inverted sequence was injected into TA muscles of opposite limbs. The determination of which TA received antisense morpholino was randomized, and investigators remained blinded to this assignment until EMG analyses were completed. Other analyses were performed without blinding. For experiments to determine the distribution of injected oligos, the antisense morpholino was labeled with carboxyfluorescein and cryosections of muscle (10 μM) were examined by fluorescence microscopy, with or without fixation in 4% paraformaldehyde. Some sections were co-labeled with TRITC-wheat germ agglutinin (Parsons, S. A., et al. (2003) Mol Cell Biol 23:4331-4343) (50 μg/ml in PBS; Sigma) and 4′,6-diamidino-2-phenylindole (DAPI) to highlight the surface membranes and nuclei of muscle fibers.
# EMG was performed under general anesthesia as described previously (Kanadia, R. N., et al. (2003) Science 302:1978-1980). Images and video recordings of electromyographic myotonia in HSA^LR and Mbnl1^ΔE3/ΔE3 mice are shown in previous reports (Kanadia, R. N., et al. (2003) Science 302:1978-1980; Mankodi, A., et al. (2000) Science 289:1769-1773). […]
# [2] = system: ClC-1 mRNA; test: Quantitative real time RT-PCR of ClC-1 mRNA level; format: in vivo, HSA^LR mice; conditions: 3 weeks after treatment, relative to RNA polymerase II transcription factor IIB
# Description: HSA^LR and WT mice have the same (FVB) inbred strain background. […] FIGS. 25D and 25E show the percentage of ClC-1 splice products that include exon 7a is shown at 3 (D) and 8 (E) weeks following morpholino injection. Mean±s.d.; n=3 per group; **P<0.001; *P=0.035 antisense- versus invert-treated controls; t-test. […] ClC-1 mRNA level is expressed in arbitrary units relative to housekeeping gene RNA polymerase II transcription factor IIB. Mean±s.d.; n=3 per group; *P=0.06 for antisense vs invert-treated control; t-test.
# RT-PCR products (22 cycles) were separated on agarose gels, stained with SYBR green II, and scanned on a laser fluorimager (Molecular Dynamics). Band intensity was quantified using ImageQuant software. Total levels of ClC-1 mRNA were determined by quantitative real-time RT-PCR (Taqman, Applied Biosystems) relative to housekeeping gene RNA polymerase II transcription factor IIB.
Substance,"myotonia (EMG) ([1]; 3 weeks (21 days) after injection, listed as antisense morpholino)","myotonia (EMG) ([1]; 8 weeks after injection, listed as antisense morpholino)",level of ClC-1 mRNA ([2]; listed as antisense morpholino),myotonia (EMG) ([1]; 3 weeks (21 days) after injection),myotonia (EMG) ([1]; 8 weeks after injection),level of ClC-1 mRNA [2]
antisense 1: morpholino 5′-CCAGGCACGGTCTGCAACAGAGAAG-3′ targeting the 3′ splice site of ClC-1 exon 7a (all phosphorodiamidate morpholino (PMO)),marked reduction of myotonia; also recorded: markedly reduced or absent; also recorded: significantly reduced,markedly reduced or absent; also recorded: significantly reduced,increased levels of ClC-1 mRNA,,,
"control morpholino: control morpholino 5′-GAAGAGACAACGTCTGGCACGGACC-3′, the 5′-3′ invert of the 3′ splice site blocker (all phosphorodiamidate morpholino (PMO)) [reference compound]",,,,not different from uninjected muscle,not different from uninjected muscle,not control morpholino with inverted sequence
